{"source": "patent US20120064058A1", "about": "“COMPOSITIONS FOR PROTEIN-BASED DIETARY PRODUCTS” (ITALFARMACIA SRL, priority 2008, published 2012)", "origin": "cited, not measured here", "key": {"[1]": {"system": "diabetic rats"}, "[2]": {"system": "rats"}, "[3]": {"details": "compared with untreated diabetic rats"}}}
{"smiles": "NCC(=O)O", "note": "[Glycine]", "values": [{"measurement": "expression of O-acetyl sialic acid in brain vessels", "setting": "[1]; [3]", "value": "diminished expression"}, {"measurement": "incidence of opacity in lens and microaneurysms in the eyes", "setting": "[1]; [3]", "value": "reduced incidence"}, {"measurement": "corporal weight loss", "setting": "[1]; in comparison with non-treated animals", "value": "less intense corporal weight loss"}]}
{"smiles": "N=C(N)NCCC[C@H](N)C(=O)O", "note": "[L-Arginine]", "values": [{"measurement": "excretion of orotic acid in the urine", "setting": "[2]", "value": "less excretion of orotic acid in the urine"}, {"measurement": "kidney hypertrophy", "setting": "[2]; long-term consequence of a protein rich regimen", "value": "can prevent kidney hypertrophy"}]}
{"smiles": "NCCS(=O)(=O)O", "note": "[L-Taurine]", "values": [{"measurement": "renal functionality", "setting": "[1]", "value": "beneficial effects on renal functionality"}]}
